Results: US20080009418A1, “Selective Inhibitors” (Alchemia LTD., priority 2004, published 2008)

What was measured:
Mouse urotensin (mUR2) = target: T1, Mouse urotensin (mUR2) (Mus musculus, UniProt Q8VIH9); test: Radioligand binding, mouse urotensin mUR2 membranes, FlashPlate, [125I]-Urotensin II; conditions: compound at 10 μM; for A11: inhibition of radioligand binding: [125I]-Urotensin II
T1 construct: purchased Perkin Elmer Biosignal
T1 sequence (Q8VIH9 1-385): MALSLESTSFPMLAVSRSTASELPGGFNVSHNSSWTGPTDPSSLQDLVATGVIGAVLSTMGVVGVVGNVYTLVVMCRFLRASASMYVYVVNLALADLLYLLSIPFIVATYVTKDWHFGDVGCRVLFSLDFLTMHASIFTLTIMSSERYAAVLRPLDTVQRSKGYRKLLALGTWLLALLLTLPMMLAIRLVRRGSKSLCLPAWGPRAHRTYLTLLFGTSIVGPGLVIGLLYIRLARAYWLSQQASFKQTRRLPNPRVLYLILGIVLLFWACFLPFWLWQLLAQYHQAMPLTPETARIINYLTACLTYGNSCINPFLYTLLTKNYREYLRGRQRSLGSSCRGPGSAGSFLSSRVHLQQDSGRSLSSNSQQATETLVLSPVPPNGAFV
Method in brief: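 Cloned mouse urotensin (mUR2) receptor membranes from Perkin Elmer Biosignal were immobilized in FlashPlate microplates using a proprietary coating. Each well got 19.5 μl buffer, then 0.5 μl of DMSO, reference ligand, or compound. Adding 5 μl of [125I]-Urotensin II, diluted to 5× final concentration in binding buffer, started binding. Plates were sealed with TopSeal-A and incubated 1 hour at room temperature in the dark. Wells were counted for 30 seconds each on a TopCount after a 60-second delay, and percentage inhibition was calculated.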

Human δ-opioid (DOP) = target: T2, Human δ-opioid (DOP) (Homo sapiens, UniProt P41143); test: Radioligand binding, human δ-opioid (DOP) membranes, FlashPlate, [3H]-Bremazocine; conditions: compound at 10 μM; for A1: inhibition of radioligand binding: [3H]-Bremazocine
T2 construct: purchased Perkin Elmer Biosignal
Method in brief: (§1)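 Cloned human receptor membranes were coated onto FlashPlate wells and incubated with radioligand and compound (added from a 0.5 mM DMSO daughter plate) for 1 hour at room temperature in the dark. Scintillation counting gave percent inhibition, with DMSO defining total and reference ligand defining non-specific binding.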

Human Melanocortin (MC3) = target: T3, Human Melanocortin (MC3) (Homo sapiens, UniProt P41968); test: Radioligand binding, human melanocortin MC3 membranes, FlashPlate, [125I]-NDP-αMSH; conditions: compound at 10 μM; for A3: inhibition of radioligand binding: [125I]-NDP-αMSH
T3 construct: purchased Perkin Elmer Biosignal
Method in brief: as §1

Human opioid (ORL1) = target: T4, Human opioid (ORL1) (Homo sapiens, UniProt P41146); test: Radioligand binding, human opioid ORL1 membranes, FlashPlate, [125I]-Nociceptin; conditions: compound at 10 μM; for A10: inhibition of radioligand binding: [125I]-Nociceptin
T4 construct: purchased Perkin Elmer Biosignal
Method in brief: as §1

Human neurokinin (NK1) = target: T5, Human neurokinin (NK1) (Homo sapiens, UniProt P25103); test: Radioligand binding, human neurokinin NK1 membranes, filtration, [125I]-Substance P; conditions: compound at 10 μM; for A8: inhibition of radioligand binding: [125I]-Substance P
T5 construct: purchased Perkin Elmer Biosignal
Method in brief: (§2)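 Percent inhibition of radioligand binding measured on recombinant human membranes: NK1 with [125I]-Substance P, KOP with [3H]-Diprenorphine. Incubation 1 h at room temperature, then harvest onto 0.3% PEI-soaked filters, cold Tris-HCl pH 7.4 washes and scintillation counting; non-specific binding from reference ligand wells.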

Human melanocortin (MC5) = target: T6, Human melanocortin (MC5) (Homo sapiens, UniProt P33032); test: Radioligand binding, human melanocortin MC5 membranes, FlashPlate, [125I]-NDP-αMSH; conditions: compound at 10 μM; for A5: inhibition of radioligand binding: [125I]-NDP-αMSH
T6 construct: purchased Perkin Elmer Biosignal
Method in brief: as §1

Human Melanocortin (MC4) = target: T7, Human Melanocortin (MC4) (Homo sapiens, UniProt P32245); test: Radioligand binding, human melanocortin MC4 membranes, FlashPlate, [125I]-NDP-αMSH; conditions: compound at 10 μM; for A4: inhibition of radioligand binding: [125I]-NDP-αMSH
T7 construct: purchased Perkin Elmer Biosignal
Method in brief: as §1

[1] = target: T8, Human melanin-concentrating hormone (MCH1) (Homo sapiens, UniProt Q99705); test: Radioligand binding, human melanin-concentrating hormone MCH1 membranes, FlashPlate, [125I]-S36057; conditions: compound at 10 μM
T8 construct: purchased Perkin Elmer Biosignal
Method in brief: as §1

[2] = target: T9, Human neuropeptide Y (NPY-Y1) (Homo sapiens, UniProt P25929); test: Radioligand binding, human neuropeptide Y NPY-Y1 membranes, FlashPlate, [125I]-PYY; conditions: compound at 10 μM; for A9: inhibition of radioligand binding: [125I]-PYY
T9 construct: purchased Perkin Elmer Biosignal
T9 sequence (P25929 1-384): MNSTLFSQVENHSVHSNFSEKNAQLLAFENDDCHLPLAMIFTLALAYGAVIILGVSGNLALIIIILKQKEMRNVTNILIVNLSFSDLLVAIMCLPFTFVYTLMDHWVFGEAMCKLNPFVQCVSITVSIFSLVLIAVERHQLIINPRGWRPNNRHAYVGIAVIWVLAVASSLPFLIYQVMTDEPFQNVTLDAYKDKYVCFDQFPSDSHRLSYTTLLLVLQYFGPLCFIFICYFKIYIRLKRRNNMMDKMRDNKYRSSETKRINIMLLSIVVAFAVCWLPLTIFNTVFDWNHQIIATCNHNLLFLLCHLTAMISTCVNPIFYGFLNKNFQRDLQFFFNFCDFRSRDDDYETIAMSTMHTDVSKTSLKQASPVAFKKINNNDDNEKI
Method in brief: as §1

Human μ-opioid (MOP) = target: T10, Human μ-opioid (MOP) (Homo sapiens, UniProt P35372); test: Radioligand binding, human μ-opioid (MOP) membranes, FlashPlate, [3H]-Naloxone; conditions: compound at 10 μM; for A7: inhibition of radioligand binding: [3H]-Naloxone
T10 construct: purchased Perkin Elmer Biosignal
Method in brief: as §1

Human κ-Opioid (KOP) = target: T11, Human κ-Opioid (KOP) (Homo sapiens, UniProt P41145); test: Radioligand binding, human κ-opioid (KOP) membranes, filtration, [3H]-Diprenorphine; conditions: compound at 10 μM; for A2: inhibition of radioligand binding: [3H]-Diprenorphine
T11 construct: purchased Perkin Elmer Biosignal
Method in brief: as §2

T8 sequence (Q99705 whole entry): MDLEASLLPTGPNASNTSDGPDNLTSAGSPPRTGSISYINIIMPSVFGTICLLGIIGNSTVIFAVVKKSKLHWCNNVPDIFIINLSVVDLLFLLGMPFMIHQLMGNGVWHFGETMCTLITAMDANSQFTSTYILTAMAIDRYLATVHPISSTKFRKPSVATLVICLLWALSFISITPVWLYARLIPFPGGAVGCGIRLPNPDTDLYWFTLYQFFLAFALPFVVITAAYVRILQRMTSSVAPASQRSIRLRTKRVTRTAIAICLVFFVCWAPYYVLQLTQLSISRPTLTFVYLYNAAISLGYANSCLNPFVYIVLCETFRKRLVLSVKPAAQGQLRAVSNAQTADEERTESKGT
T2 sequence (P41143 whole entry): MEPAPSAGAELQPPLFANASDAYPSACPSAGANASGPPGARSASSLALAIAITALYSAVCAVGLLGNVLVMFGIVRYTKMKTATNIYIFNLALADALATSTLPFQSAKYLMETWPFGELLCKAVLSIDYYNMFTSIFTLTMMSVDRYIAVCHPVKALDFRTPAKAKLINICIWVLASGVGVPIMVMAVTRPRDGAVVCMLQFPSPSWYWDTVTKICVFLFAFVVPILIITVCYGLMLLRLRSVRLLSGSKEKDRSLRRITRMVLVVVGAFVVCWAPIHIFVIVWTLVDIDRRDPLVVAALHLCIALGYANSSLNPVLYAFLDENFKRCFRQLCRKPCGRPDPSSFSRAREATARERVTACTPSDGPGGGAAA
T6 sequence (P33032 whole entry): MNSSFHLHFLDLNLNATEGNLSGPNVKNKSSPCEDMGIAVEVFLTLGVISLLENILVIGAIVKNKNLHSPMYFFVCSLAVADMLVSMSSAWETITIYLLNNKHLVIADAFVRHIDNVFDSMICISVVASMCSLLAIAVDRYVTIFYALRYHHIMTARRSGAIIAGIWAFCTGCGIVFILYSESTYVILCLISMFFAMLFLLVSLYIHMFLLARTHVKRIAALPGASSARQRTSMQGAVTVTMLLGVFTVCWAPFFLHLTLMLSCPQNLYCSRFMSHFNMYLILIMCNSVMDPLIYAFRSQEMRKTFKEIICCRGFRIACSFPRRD
T10 sequence (P35372 whole entry): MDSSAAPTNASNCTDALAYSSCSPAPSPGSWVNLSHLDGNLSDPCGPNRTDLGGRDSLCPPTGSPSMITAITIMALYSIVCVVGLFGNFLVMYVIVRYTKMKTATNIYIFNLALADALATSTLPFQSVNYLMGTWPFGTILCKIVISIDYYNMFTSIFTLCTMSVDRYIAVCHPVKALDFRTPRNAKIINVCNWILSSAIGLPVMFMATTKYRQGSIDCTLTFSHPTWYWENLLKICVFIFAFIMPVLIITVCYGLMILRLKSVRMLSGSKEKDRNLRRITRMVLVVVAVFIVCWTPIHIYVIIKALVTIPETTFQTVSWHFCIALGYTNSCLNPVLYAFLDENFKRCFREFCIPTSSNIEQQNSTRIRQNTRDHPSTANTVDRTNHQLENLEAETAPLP
T11 sequence (P41145 whole entry): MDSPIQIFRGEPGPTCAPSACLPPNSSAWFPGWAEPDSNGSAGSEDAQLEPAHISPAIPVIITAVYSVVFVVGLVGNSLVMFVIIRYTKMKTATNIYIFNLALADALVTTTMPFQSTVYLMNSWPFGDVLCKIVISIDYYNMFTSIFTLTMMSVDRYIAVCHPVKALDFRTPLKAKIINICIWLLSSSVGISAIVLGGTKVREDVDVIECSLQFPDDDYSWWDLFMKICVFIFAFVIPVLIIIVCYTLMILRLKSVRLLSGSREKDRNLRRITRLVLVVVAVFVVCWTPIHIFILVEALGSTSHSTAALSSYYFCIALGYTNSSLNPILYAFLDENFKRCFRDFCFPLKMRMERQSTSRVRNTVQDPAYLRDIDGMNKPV
T7 sequence (P32245 whole entry): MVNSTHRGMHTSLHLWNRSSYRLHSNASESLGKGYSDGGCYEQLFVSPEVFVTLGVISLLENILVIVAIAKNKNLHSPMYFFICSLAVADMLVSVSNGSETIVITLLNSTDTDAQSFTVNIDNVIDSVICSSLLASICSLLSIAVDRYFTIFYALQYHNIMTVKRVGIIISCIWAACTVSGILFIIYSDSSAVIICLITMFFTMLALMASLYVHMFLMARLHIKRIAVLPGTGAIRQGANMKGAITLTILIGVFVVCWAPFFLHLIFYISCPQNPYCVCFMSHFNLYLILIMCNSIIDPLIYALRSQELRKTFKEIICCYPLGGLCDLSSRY
T4 sequence (P41146 whole entry): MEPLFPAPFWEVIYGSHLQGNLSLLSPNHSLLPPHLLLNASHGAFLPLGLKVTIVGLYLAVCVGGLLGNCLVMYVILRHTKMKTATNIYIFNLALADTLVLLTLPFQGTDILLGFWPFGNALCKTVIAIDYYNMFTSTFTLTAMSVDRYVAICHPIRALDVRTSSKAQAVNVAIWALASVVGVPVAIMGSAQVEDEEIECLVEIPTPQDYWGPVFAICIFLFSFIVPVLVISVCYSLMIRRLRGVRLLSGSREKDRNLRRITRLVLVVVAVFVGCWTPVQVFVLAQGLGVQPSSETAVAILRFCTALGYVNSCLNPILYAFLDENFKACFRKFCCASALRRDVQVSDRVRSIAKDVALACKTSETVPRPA
T3 sequence (P41968 whole entry): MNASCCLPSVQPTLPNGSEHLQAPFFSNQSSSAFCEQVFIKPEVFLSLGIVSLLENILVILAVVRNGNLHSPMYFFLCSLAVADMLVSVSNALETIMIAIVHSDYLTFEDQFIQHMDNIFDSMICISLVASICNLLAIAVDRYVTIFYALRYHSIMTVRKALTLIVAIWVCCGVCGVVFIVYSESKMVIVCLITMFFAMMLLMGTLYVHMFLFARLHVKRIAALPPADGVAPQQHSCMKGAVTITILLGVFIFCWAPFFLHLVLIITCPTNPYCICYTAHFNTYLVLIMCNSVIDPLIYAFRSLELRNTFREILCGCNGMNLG
T5 sequence (P25103 whole entry): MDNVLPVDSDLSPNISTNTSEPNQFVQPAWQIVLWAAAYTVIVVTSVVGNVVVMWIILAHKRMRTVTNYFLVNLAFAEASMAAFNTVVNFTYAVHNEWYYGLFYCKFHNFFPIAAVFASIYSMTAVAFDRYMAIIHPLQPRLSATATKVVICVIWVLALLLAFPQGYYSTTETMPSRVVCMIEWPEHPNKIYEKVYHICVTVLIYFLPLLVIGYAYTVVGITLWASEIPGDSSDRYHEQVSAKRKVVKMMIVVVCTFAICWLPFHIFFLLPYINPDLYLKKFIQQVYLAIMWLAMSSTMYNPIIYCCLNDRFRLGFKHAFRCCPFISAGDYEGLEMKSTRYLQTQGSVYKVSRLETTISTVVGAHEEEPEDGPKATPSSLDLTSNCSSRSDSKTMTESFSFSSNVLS

## COCC1OC(OCc2ccc(Cl)cc2)C(NC(=O)CNC(=N)N)C(OCc2ccccc2)C1O (stereo not drawn) [compound 194]
Mouse urotensin (mUR2); FlashPlate
  A11: inhibition of radioligand binding: − (“−” indicates less than 50% inhibition at 10 μM)
Human δ-opioid (DOP); FlashPlate
  A1: inhibition of radioligand binding: − (“−” indicates less than 50% inhibition at 10 μM)
Human Melanocortin (MC3); FlashPlate
  A3: inhibition of radioligand binding: − (“−” indicates less than 50% inhibition at 10 μM)
Human opioid (ORL1); FlashPlate
  A10: inhibition of radioligand binding: − (“−” indicates less than 50% inhibition at 10 μM)
Human neurokinin (NK1); filtration
  A8: inhibition of radioligand binding: + (“+” indicates greater than 50% inhibition at 10 μM)
Human melanocortin (MC5); FlashPlate
  A5: inhibition of radioligand binding: + (“+” indicates greater than 50% inhibition at 10 μM)
Human Melanocortin (MC4); FlashPlate
  A4: inhibition of radioligand binding: + (“+” indicates greater than 50% inhibition at 10 μM)
[1]; [125I]-S36057, FlashPlate
  A6: inhibition of radioligand binding: − (“−” indicates less than 50% inhibition at 10 μM)
[2]; FlashPlate
  A9: inhibition of radioligand binding: − (“−” indicates less than 50% inhibition at 10 μM)
Human μ-opioid (MOP); FlashPlate
  A7: inhibition of radioligand binding: − (“−” indicates less than 50% inhibition at 10 μM)
Human κ-Opioid (KOP); filtration
  A2: inhibition of radioligand binding: − (“−” indicates less than 50% inhibition at 10 μM)

## N=C(N)NCCC(=O)NC1C(OCc2ccc(Cl)cc2)OC(COCc2ccccc2)C(O)C1OCc1ccc(-c2ccccc2)cc1 (stereo not drawn) [compound 433]
Mouse urotensin (mUR2); mouse mUR2 membranes
  A11: inhibition of radioligand binding: − (“−” indicates less than 50% inhibition at 10 μM)
Human δ-opioid (DOP); human DOP membranes
  A1: inhibition of radioligand binding: − (“−” indicates less than 50% inhibition at 10 μM)
Human Melanocortin (MC3); human MC3 membranes
  A3: inhibition of radioligand binding: − (“−” indicates less than 50% inhibition at 10 μM)
Human opioid (ORL1); human ORL1 membranes
  A10: inhibition of radioligand binding: − (“−” indicates less than 50% inhibition at 10 μM)
Human neurokinin (NK1); human NK1 membranes
  A8: inhibition of radioligand binding: + (“+” indicates greater than 50% inhibition at 10 μM)
Human melanocortin (MC5); human MC5 membranes
  A5: inhibition of radioligand binding: + (“+” indicates greater than 50% inhibition at 10 μM)
Human Melanocortin (MC4); human MC4 membranes
  A4: inhibition of radioligand binding: + (“+” indicates greater than 50% inhibition at 10 μM)
[1]; [125I]-S36057, human MCH1 membranes
  A6: inhibition of radioligand binding: + (“+” indicates greater than 50% inhibition at 10 μM)
[2]; human NPY-Y1 membranes
  A9: inhibition of radioligand binding: − (“−” indicates less than 50% inhibition at 10 μM)
Human μ-opioid (MOP); human MOP membranes
  A7: inhibition of radioligand binding: − (“−” indicates less than 50% inhibition at 10 μM)
Human κ-Opioid (KOP); human KOP membranes
  A2: inhibition of radioligand binding: − (“−” indicates less than 50% inhibition at 10 μM)

## CO[C@H]1[C@H](O)[C@@H](COCc2ccc(-c3ccccc3)cc2)OC(OCc2ccccc2)[C@@H]1NC(=O)CCNC(=N)N (stereo partly drawn) [compound 83]
Mouse urotensin (mUR2); mouse urotensin mUR2 membranes
  A11 radioligand binding inhibition: − (“−” indicates less than 50% inhibition at 10 μM)
Human δ-opioid (DOP); human δ-opioid (DOP) membranes
  A1 radioligand binding inhibition: − (“−” indicates less than 50% inhibition at 10 μM)
Human Melanocortin (MC3); human melanocortin MC3 membranes
  A3 radioligand binding inhibition: − (“−” indicates less than 50% inhibition at 10 μM)
Human opioid (ORL1); human ORL1 membranes
  A10 radioligand binding inhibition: − (“−” indicates less than 50% inhibition at 10 μM)
Human neurokinin (NK1); human neurokinin NK1 membranes
  A8 radioligand binding inhibition: + (“+” indicates greater than 50% inhibition at 10 μM)
Human melanocortin (MC5); human melanocortin MC5 membranes
  A5 radioligand binding inhibition: + (“+” indicates greater than 50% inhibition at 10 μM)
Human Melanocortin (MC4); human melanocortin MC4 membranes
  A4 radioligand binding inhibition: − (“−” indicates less than 50% inhibition at 10 μM)
[1]; human MCH1 membranes
  A6 radioligand binding inhibition: − (“−” indicates less than 50% inhibition at 10 μM)
[2]; human NPY-Y1 membranes
  A9 radioligand binding inhibition: − (“−” indicates less than 50% inhibition at 10 μM)
Human μ-opioid (MOP); human μ-opioid (MOP) membranes
  A7 radioligand binding inhibition: + (“+” indicates greater than 50% inhibition at 10 μM)
Human κ-Opioid (KOP); human κ-opioid (KOP) membranes
  A2 radioligand binding inhibition: − (“−” indicates less than 50% inhibition at 10 μM)
